Data set [1] concerns human CCK-2 receptor transfected A431 cells. The data set is described as follows: Biodistribution of 177Lu-labelled mini-gastrin analogues in tumour-bearing CD1 nu/nu mice. The following applies: 4 hours after injection. It counts as in vivo. On the procedure:
PP-F11N has been investigated according to the CD1 nu/nu mice model. […] FIG. 2 illustrates the biodistribution of PP-F11, PP-F11N and oxidized PP-F11 ox (oxidized PP-F11) after 4 hours in the athymic CD1 nu/nu mice model. Tumour positive: with human CCK-2 receptor transfected A431 cells on one side of the mouse; tumor negative: CCK-2 receptor negative A431 cells on the other side of the mouse. The effect of the higher tumor uptake by the exchange of methionine with norleucine is specifically apparent with compounds having the DGlu6 sequence, different from compounds having a sequence with DGLn6 which is referred to as PP-F10.
CD1 nu/nu mice were injected with 5×10^6 A431 cells. CCK-2 receptor positive A431 cells' were injected into one flank and mock cells on the other as an unspecific control. The tumors reach a weight of about 80 to 120 mg after about 10 days. 150-200 kBq (5 pmol) of the radiolabelled peptides were injected into the tail vein. Mice were killed by CO2 asphyxiation after defined time points post injection. The organs were dissected, weighted and the activity was measured. The % injected activity per gram (% i.A./g) was calculated. The animal experiments were approved by the local animal welfare committee and performed according to national regulations.

Data set [2] can be described thus: Stability of 177Lu-labelled mini-gastrin analogues in human serum, metabolites by HPLC. Format: in vitro ADME. To be noted: compared to PP-F11, PP-F10N and PP-F10. On the procedure: 12 MBq of the radiolabelled compound was incubated in 2 mL fresh human plasma. A 40 μL probe was taken after 0, 1, 2, 18, 24, 48 and 72 h and added 200 μL (50% Methanol and 50% Acetonitril) in a Mini-UniPrep Filter. The solution is filtered after vortexing. 40 μL of the filtered solution is analyzed by HPLC.

Molecules are shown by their SMILES.

`CCCC[C@H](NC(=O)[C@H](Cc1c[nH]c2ccccc12)NC(=O)CNC(=O)[C@H](Cc1ccc(O)cc1)NC(=O)[C@H](C)NC(=O)[C@@H](CCC(=O)O)NC(=O)[C@@H](CCC(=O)O)NC(=O)[C@@H](CCC(=O)O)NC(=O)[C@@H](CCC(=O)O)NC(=O)[C@@H](CCC(=O)O)NC(=O)[C@@H](CCC(=O)O)NC(=O)CN1CCN(CC(=O)O)CCN(CC(=O)O)CCN(CC(=O)O)CC1)C(=O)N[C@@H](CC(=O)O)C(=O)N[C@@H](Cc1ccccc1)C(N)=O` [PP-F11N]: the “accumulation in the kidneys” value in data set [1] is given as “very few accumulation in the kidneys”. In addition, in data set [2], the pharmacologic stability entry is “highest pharmacologic stability of all probands”.

Source of the values: US10130724B2, “Mini-gastrin analogue, in particular for use in CCK2 receptor positive tumour diagnosis and/or treatment” (PAUL SCHERRER INSTITUT, priority 2013, dated 2018).
